Laboratory results taken from US11180474B2 (BRISTOL-MYERS SQUIBB COMPANY, priority 2016, dated 2021).

How the values were obtained:
[1] = biological target: T1, human TLR7 (Homo sapiens, UniProt Q9NYK1); test: TLR7 inhibition reporter assay (HEK-Blue cells, SEAP reporter, gardiquimod stimulation); format: cell-based; details: HEK-Blue cells overexpressing human TLR7, gardiquimod 7.5 μM
T1 construct: host or cells: HEK-Blue cells
T1 sequence (Q9NYK1 27-1049): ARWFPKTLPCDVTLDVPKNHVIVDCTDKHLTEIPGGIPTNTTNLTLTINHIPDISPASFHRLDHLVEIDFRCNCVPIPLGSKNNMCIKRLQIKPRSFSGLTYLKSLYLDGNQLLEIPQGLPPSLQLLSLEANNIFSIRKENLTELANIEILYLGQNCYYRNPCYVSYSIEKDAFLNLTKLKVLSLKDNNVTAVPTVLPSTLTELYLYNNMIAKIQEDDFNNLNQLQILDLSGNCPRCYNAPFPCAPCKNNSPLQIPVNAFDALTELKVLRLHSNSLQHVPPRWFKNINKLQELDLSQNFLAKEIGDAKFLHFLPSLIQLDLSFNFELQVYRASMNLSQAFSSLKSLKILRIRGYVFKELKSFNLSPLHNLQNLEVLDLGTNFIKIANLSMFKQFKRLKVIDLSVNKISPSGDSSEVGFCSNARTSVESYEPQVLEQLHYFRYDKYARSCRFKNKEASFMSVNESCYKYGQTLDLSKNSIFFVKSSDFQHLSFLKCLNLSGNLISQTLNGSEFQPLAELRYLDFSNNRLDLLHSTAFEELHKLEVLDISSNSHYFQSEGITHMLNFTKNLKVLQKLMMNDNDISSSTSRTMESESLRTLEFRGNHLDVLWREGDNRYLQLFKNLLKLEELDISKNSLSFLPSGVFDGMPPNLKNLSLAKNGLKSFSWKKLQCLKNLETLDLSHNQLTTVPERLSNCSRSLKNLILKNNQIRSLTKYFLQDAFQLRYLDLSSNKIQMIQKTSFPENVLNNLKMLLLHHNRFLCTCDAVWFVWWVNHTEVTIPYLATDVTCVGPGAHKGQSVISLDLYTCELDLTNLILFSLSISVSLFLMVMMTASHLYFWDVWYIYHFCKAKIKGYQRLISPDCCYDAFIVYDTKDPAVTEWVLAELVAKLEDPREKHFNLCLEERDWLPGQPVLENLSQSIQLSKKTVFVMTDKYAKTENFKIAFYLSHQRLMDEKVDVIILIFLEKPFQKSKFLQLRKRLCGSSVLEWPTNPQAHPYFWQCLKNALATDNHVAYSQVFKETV
In short: (§1)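 In this cell reporter format, test compounds at 0.05 nM-50 μM final incubate 22 h with seeded cells (TLR7 15000, TLR8 20,000 per well). SEAP read-out by HEK-Blue Detection medium yields % inhibition relative to agonist/DMSO and known-inhibitor wells.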

[2] = biological target: T2, human TLR8 (Homo sapiens, UniProt Q9NR97); test: TLR8 inhibition reporter assay (HEK-Blue cells, SEAP reporter, R848 stimulation); format: cell-based; details: HEK-Blue cells overexpressing human TLR8, R848 15.9 μM
T2 construct: host or cells: HEK-Blue cells
T2 sequence (Q9NR97 27-1041): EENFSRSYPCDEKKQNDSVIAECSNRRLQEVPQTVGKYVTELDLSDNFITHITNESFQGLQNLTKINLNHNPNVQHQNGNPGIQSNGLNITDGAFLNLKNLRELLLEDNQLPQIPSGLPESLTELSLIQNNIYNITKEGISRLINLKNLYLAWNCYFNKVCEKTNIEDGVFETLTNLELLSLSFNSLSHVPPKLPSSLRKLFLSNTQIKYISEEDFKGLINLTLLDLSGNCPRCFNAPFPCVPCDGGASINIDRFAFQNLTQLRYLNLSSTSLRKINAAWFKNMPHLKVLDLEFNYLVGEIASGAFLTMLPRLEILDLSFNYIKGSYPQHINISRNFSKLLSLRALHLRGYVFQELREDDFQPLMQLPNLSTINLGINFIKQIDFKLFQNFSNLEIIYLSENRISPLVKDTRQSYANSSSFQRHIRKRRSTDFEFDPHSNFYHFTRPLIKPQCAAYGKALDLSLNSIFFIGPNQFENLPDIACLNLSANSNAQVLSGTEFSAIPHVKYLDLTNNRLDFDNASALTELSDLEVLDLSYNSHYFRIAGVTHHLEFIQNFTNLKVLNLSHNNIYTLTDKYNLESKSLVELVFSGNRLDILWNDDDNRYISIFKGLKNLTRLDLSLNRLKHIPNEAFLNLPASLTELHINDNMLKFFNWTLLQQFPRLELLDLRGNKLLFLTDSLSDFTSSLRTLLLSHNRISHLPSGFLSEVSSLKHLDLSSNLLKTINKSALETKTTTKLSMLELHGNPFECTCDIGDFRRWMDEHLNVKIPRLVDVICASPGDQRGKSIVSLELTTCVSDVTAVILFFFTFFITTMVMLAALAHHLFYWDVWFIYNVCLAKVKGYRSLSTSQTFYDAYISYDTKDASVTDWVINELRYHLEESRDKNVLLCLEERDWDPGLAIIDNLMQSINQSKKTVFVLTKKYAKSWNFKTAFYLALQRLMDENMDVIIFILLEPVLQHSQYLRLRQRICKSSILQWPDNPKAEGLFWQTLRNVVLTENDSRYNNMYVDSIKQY
In short: as §1

| IC50 [1] | IC50 [2] | SMILES |
| --- | --- | --- |
| 0.036 µM | 0.017 µM | COc1ccc(-c2[nH]c3ccc(C4CCN(C(=O)CN5CCC[C@H](C(=O)N6CCC(CCO)CC6)C5)CC4)cc3c2C(C)C)cc1OC [Example 291, (S)-1-(4-(2-(3,4-dimethoxyphenyl)-3-isopropyl-1H-indol-5-yl)piperidin-1-yl)-2-(3-(4-(2-hydroxyethyl)piperidine-1-carbonyl)piperidin-1-yl)ethan-1-one] |
| 0.022 µM | 0.022 µM | COc1ccc(-c2[nH]c3ccc(C4CCN(C(=O)CN5CCC[C@H](C(=O)N6CCCC(O)C6)C5)CC4)cc3c2C(C)C)cc1OC (stereo partly drawn) [Example 292, 1-(4-(2-(3,4-dimethoxyphenyl)-3-isopropyl-1H-indol-5-yl)piperidin-1-yl)-2-((3S)-3-(3-hydroxypiperidine-1-carbonyl)piperidin-1-yl)ethan-1-one] |
| 0.028 µM | 0.033 µM | COc1ccc(-c2[nH]c3ccc(C4CCN(C(=O)CN5CCC[C@H](C(=O)N6CCN(CCN7CCCC7)CC6)C5)CC4)cc3c2C(C)C)cc1OC [Example 293, (S)-1-(4-(2-(3,4-dimethoxyphenyl)-3-isopropyl-1H-indol-5-yl)piperidin-1-yl)-2-(3-(4-(2-(pyrrolidin-1-yl)ethyl)piperazine-1-carbonyl)piperidin-1-yl)ethan-1-one] |
| 1.2 µM | 0.554 µM | COc1ccc(-c2[nH]c3ccc(C4CCN(C(=O)CN5CCC[C@H](C(=O)N6CCN(Cc7ccc(Br)cc7)CC6)C5)CC4)cc3c2C(C)C)cc1OC [Example 294, (S)-2-(3-(4-(4-bromobenzyl)piperazine-1-carbonyl)piperidin-1-yl)-1-(4-(2-(3,4-dimethoxyphenyl)-3-isopropyl-1H-indol-5-yl)piperidin-1-yl)ethan-1-one] |
| 0.05 µM | 0.022 µM | COc1ccc(-c2[nH]c3ccc(C4CCN(C(=O)CN5CCC[C@H](C(=O)NCCNC(C)=O)C5)CC4)cc3c2C(C)C)cc1OC [Example 295, (S)—N-(2-acetamidoethyl)-1-(2-(4-(2-(3,4-dimethoxyphenyl)-3-isopropyl-1H-indol-5-yl)piperidin-1-yl)-2-oxoethyl) piperidine-3-carboxamide] |
| 0.035 µM | 0.022 µM | COc1ccc(-c2[nH]c3ccc(C4CCN(C(=O)CN5CCC[C@H](C(=O)NC6(CO)CCCC6)C5)CC4)cc3c2C(C)C)cc1OC [Example 296, (S)-1-(2-(4-(2-(3,4-dimethoxyphenyl)-3-isopropyl-1H-indol-5-yl)piperidin-1-yl)-2-oxoethyl)-N-(1-(hydroxymethyl)cyclopentyl)piperidine-3-carboxamide] |
| 0.048 µM | 0.019 µM | COc1ccc(-c2[nH]c3ccc(C4CCN(C(=O)CN5CCC[C@H](C(=O)NCC#N)C5)CC4)cc3c2C(C)C)cc1OC [Example 297, (S)—N-(cyanomethyl)-1-(2-(4-(2-(3,4-dimethoxyphenyl)-3-isopropyl-1H-indol-5-yl)piperidin-1-yl)-2-oxoethyl)piperidine-3-carboxamide] |
| 0.047 µM | 0.027 µM | COc1ccc(-c2[nH]c3ccc(C4CCN(C(=O)CN5CCC[C@H](C(=O)NCC(N)=O)C5)CC4)cc3c2C(C)C)cc1OC [Example 298, (S)—N-(2-amino-2-oxoethyl)-1-(2-(4-(2-(3,4-dimethoxyphenyl)-3-isopropyl-1H-indol-5-yl)piperidin-1-yl)-2-oxoethyl)piperidine-3-carboxamide] |
| 0.204 µM | 0.128 µM | COc1ccc(-c2[nH]c3ccc(C4CCN(C(=O)CN5CCC[C@H](C(=O)N6CC7CNCC7C6)C5)CC4)cc3c2C(C)C)cc1OC (some centres unmarked) [Example 299, 1-(4-(2-(3,4-dimethoxyphenyl)-3-isopropyl-1H-indol-5-yl)piperidin-1-yl)-2-((3 S)-3-(octahydropyrrolo[3,4-c]pyrrole-2-carbonyl)piperidin-1-yl)ethan-1-one] |
| 0.085 µM | 0.07 µM | COc1ccc(-c2[nH]c3ccc(C4CCN(C(=O)CN5CCC[C@H](C(=O)N6C(C)CCC6C)C5)CC4)cc3c2C(C)C)cc1OC (stereo partly drawn) [Example 300, 1-(4-(2-(3,4-dimethoxyphenyl)-3-isopropyl-1H-indol-5-yl)piperidin-1-yl)-2-((3S)-3-(2,5-dimethylpyrrolidine-1-carbonyl)piperidin-1-yl)ethan-1-one] |
| 0.066 µM | 0.019 µM | COc1ccc(-c2[nH]c3ccc(C4CCN(C(=O)CN5CCC[C@H](C(=O)N6CC[C@H](O)C6)C5)CC4)cc3c2C(C)C)cc1OC [Example 301, 1-(4-(2-(3,4-dimethoxyphenyl)-3-isopropyl-1H-indol-5-yl)piperidin-1-yl)-2-((S)-3-((S)-3-hydroxypyrrolidine-1-carbonyl)piperidin-1-yl)ethan-1-one] |
| 0.04 µM | 0.018 µM | COc1ccc(-c2[nH]c3ccc(C4CCN(C(=O)CN5CCC[C@@H](C(=O)N6CCN(C(C)C)CC6)C5)CC4)cc3c2C(C)C)cc1OC [Example 302, (R)-1-(4-(2-(3,4-dimethoxyphenyl)-3-isopropyl-1H-indol-5-yl)piperidin-1-yl)-2-(3-(4-isopropylpiperazine-1-carbonyl)piperidin-1-yl)ethan-1-one] |
| 0.03 µM | 0.031 µM | COc1ccc(-c2[nH]c3ccc(C4CCN(C(=O)CN5CCC[C@@H](C(=O)N6CCCC6)C5)CC4)cc3c2C(C)C)cc1OC [Example 303, (R)-1-(4-(2-(3,4-dimethoxyphenyl)-3-isopropyl-1H-indol-5-yl)piperidin-1-yl)-2-(3-(pyrrolidine-1-carbonyl)piperidin-1-yl)ethan-1-one] |
| 0.064 µM | 0.061 µM | COc1ccc(-c2[nH]c3ccc(C4CCN(C(=O)CN5CCC[C@@H](C(=O)N(C)C(C)C)C5)CC4)cc3c2C(C)C)cc1OC [Example 304, (R)-1-(2-(4-(2-(3,4-dimethoxyphenyl)-3-isopropyl-1H-indol-5-yl)piperidin-1-yl)-2-oxoethyl)-N-isopropyl-N-methylpiperidine-3-carboxamide] |
| 0.027 µM | 0.026 µM | COc1ccc(-c2[nH]c3ccc(C4CCN(C(=O)CN5CCC[C@@H](C(=O)N6CCC(N(C)C)CC6)C5)CC4)cc3c2C(C)C)cc1OC [Example 305, (R)-1-(4-(2-(3,4-dimethoxyphenyl)-3-isopropyl-1H-indol-5-yl)piperidin-1-yl)-2-(3-(4-(dimethylamino)piperidine-1-carbonyl)piperidin-1-yl)ethan-1-one] |
| 0.153 µM | 0.073 µM | COc1ccc(-c2[nH]c3ccc(C4CCN(C(=O)CN5CCC[C@@H](C(=O)N6CCC(CCO)CC6)C5)CC4)cc3c2C(C)C)cc1OC [Example 306, (R)-1-(4-(2-(3,4-dimethoxyphenyl)-3-isopropyl-1H-indol-5-yl)piperidin-1-yl)-2-(3-(4-(2-hydroxyethyl)piperidine-1-carbonyl)piperidin-1-yl)ethan-1-one] |
